Results published in US10214492B2, “Heterocyclic inhibitors of MCT4” (Vettore, LLC, priority 2016, dated 2019).
Read-outs that look alike come from different tables or passages of the source.

How the values were obtained:
MCT4 = MCT4 (Homo sapiens (Human), UniProt O15427); test: Assay 3: MCT4-mediated lactate transport in MDA-MB-231 breast cancer cells; assay type: cell-based
Outline: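 MDA-MB-231 cells loaded with BCECF-AM, 5 min at 37° C, washed and resuspended in Tyrode's Solution, pH 7.4. MCT4 lactate/proton symport followed as the intracellular pH change reported by BCECF fluorescence.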

MCT1 = MCT1 (Homo sapiens (Human), UniProt P53985); test: Assay 4: MCT1-mediated lactate transport in BT20 breast cancer cells; assay type: cell-based; conditions: Table 27
MCT1, sequence (P53985 whole entry): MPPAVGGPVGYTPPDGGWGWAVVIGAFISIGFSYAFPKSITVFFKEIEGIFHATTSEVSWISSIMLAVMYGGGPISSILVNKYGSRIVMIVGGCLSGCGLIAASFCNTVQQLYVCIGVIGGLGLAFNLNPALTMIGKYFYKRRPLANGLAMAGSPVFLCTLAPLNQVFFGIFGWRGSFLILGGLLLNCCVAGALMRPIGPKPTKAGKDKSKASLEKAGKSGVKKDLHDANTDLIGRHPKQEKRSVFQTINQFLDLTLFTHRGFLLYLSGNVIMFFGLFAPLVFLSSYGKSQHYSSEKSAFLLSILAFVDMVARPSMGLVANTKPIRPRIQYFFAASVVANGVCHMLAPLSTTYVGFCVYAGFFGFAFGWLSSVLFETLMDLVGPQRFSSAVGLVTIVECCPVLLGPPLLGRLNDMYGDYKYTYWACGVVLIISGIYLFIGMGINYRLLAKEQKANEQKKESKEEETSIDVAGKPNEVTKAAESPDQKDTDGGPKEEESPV
MCT1, sequence (P35613 140-385 partner): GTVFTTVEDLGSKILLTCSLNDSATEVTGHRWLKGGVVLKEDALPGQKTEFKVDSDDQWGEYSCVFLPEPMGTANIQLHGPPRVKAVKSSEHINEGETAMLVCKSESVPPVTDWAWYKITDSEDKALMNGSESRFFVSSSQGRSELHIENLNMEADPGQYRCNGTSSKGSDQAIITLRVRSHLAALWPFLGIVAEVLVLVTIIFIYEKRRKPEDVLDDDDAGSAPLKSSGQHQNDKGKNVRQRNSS
Outline: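 BT20 cells loaded with BCECF-AM (30 mM DMSO stock) for 5 min at 37° C, washed and resuspended in Tyrode's Solution pH 7.4. Lactate uptake tracked via BCECF intracellular pH signal after adding 10 mM L-lactate.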

[1] = MDA-MB-231 cells, lactate transport

MCT4, sequence (O15427 whole entry, looked up): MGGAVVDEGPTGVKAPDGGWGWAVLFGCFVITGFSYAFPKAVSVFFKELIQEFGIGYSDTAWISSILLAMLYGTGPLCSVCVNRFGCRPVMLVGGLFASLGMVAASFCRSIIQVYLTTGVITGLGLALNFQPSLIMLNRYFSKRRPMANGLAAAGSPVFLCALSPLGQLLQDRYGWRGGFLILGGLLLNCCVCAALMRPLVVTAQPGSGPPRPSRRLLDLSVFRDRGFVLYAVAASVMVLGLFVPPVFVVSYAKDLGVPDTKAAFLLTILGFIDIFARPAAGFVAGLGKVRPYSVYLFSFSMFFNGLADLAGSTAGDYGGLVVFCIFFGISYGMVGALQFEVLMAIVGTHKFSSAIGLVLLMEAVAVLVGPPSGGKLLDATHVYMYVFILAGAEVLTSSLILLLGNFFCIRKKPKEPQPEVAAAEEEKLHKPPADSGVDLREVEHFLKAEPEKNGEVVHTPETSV
MCT4, sequence (P35613 whole entry partner, looked up): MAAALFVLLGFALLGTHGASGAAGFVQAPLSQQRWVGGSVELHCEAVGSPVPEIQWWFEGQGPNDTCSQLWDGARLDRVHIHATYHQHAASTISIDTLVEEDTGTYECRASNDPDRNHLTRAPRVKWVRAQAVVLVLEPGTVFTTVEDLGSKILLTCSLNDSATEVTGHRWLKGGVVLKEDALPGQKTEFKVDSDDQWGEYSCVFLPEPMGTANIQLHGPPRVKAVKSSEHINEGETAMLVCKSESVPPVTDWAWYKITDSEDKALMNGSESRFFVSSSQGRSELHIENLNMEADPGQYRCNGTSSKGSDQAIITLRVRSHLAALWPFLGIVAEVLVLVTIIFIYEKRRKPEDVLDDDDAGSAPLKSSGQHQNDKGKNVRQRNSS

Row | Structure (SMILES) | IC50 (MCT4; [1]) [nM] | IC50 (MCT1) [nM] | IC50 (MCT4) [nM]
1 | CCOc1ccccc1Cn1nc(COC(C)(C)C(=O)O)cc1-c1cccc(OC2CCC2)c1 [Example 210, 2-([5-(3-cyclobutoxyphenyl)-1-[(2-ethoxy-phenyl)methyl]-1H-pyrazol-3-yl]methoxy)-2-methylpropanoic acid] | 2.4 | 7300 | 
2 | COc1cc(OC)cc(-c2cc(COC(C)(C)C(=O)O)nn2CCc2ccccc2)c1 [Example 212, 2-([5-(3,5-Dimethoxyphenyl)-1-(2-phenyl-ethyl)-1H-pyrazol-3-yl]methoxy)-2-methylpropanoic acid] | 195 | > 100000 | 
3 | CC[C@@](C)(OCc1cc(-c2cccc(OC3CC3)c2)n(-c2cccc3cnn(C)c23)n1)C(=O)O [Example 217, (2R)-2-([5-(3-cyclopropoxyphenyl)-1-(1-methyl-1H-indazol-7-yl)-1H-pyrazol-3-yl]methoxy)-2-methylbutanoic acid] | 8.7 | 18000 | 
4 | CC[C@](C)(OCc1cc(-c2cccc(OC)c2)n(Cc2ccccc2Cl)n1)C(=O)O [Example 218, (2S)-2-([1-[(2-chlorophenyl)methyl]-5-(3-methoxyphenyl)-1H-pyrazol-3-yl]methoxy)-2-methylbutanoic acid] | 7.5 | 22000 | 
5 | CC(C)Oc1ncc(-c2cc(COC(C)(C)C(=O)O)nn2Cc2ccccc2Cl)o1 [Example 227, 2-([1-[(2-Chlorophenyl)methyl]-5-[2-(propan-2-yloxy)-1,3-oxazol-5-yl]-1H-pyrazol-3-yl)methoxy)-2-methylpropanoic acid] | 690 | 37000 | 
6 | Cn1ncc2ccc(-c3cc(COC(C)(C)C(=O)O)nn3-c3ccccc3N3CCCC3)cc21 [Example 230, 2-Methyl-2-([5-(1-methyl-1H-indazol-6-yl)-1-[2-(pyrrolidin-1-yl)phenyl]-1H-pyrazol-3-yl]methoxy]propanoic acid] | 8.1 | 92000 | 
7 | CC(C)(OCc1cc(-c2cccc(OC3CC3)c2)n(-c2ccccc2N2CC[C@H](O)C2)n1)C(=O)O [Example 233, 2-([5-(3-Cyclopropoxyphenyl)-1-[2-[(3S)-3-hydroxypyrrolidin-1-yl]phenyl]-1H-pyrazol-3-yl]methoxy)-2-methylpropanoic acid] | 700 | > 100000 | 
8 | CC(C)(OCc1cc(-c2cccc(OC3CCC3)c2)n(Cc2ccccc2N2CCCC2)n1)C(=O)O [Example 238, 2-([5-(3-Cyclobutoxyphenyl)-1-[[2-(pyrrolidin-1-yl)phenyl]methyl]-1H-pyrazol-3-yl]methoxy)-2-methylpropanoic acid] | 3.7 | 21000 | 
9 | CC(C)(OCc1cc(-c2cccc(OC3CC3)c2)n(-c2ccccc2C#N)n1)C(=O)O [Example 239, 2-([1-(2-Cyanophenyl)-5-(3-cyclopropoxy-phenyl)-1H-pyrazol-3-yl)methoxy)-2-methylpropanoic acid] |  | > 100000 | 150
10 | CCOc1cccc(F)c1Cn1nc(COC(C)(C)C(=O)O)cc1-c1cc(OC)cc(OC)c1 [Example 252, 2-([5-(3,5-Dimethoxyphenyl)-1-[(2-ethoxy-6-fluorophenyl)methyl]-1H-pyrazol-3-yl]methoxy)-2-methylpropanoic acid] | 25 | 43000 | 
11 | CCn1ncc2ccc(-c3cc(COC(C)(C)C(=O)O)nn3Cc3ccccn3)cc21 [Example 259, 2-([5-(1-Ethyl-1H-indazol-6-yl)-1-([pyridin-2-yl]methyl)-1H-pyrazol-3-yl]methoxy)-2-methylpropanoic acid] | 850 | > 100000 | 
12 | CC[C@@](C)(OCc1cc(-c2cccc(OC3CC3)c2)n(-c2ccccc2Cl)n1)C(=O)O [Example 262, (2R)-2-([1-(2-Chlorophenyl)-5-(3-cyclopropoxyphenyl)-1H-pyrazol-3-yl]methoxy)-2-methylbutanoic acid] | 9.1 | 7900 | 
13 | CC[C@@](C)(OCc1cc(-c2cccc(OCC(C)C)c2)n(-c2cccc3cnn(C)c23)n1)C(=O)O [Example 263, (2R)-2-Methyl-2-([1-(1-methyl-1H-indazol-7-yl)-5-[3-(2-methylpropoxy)phenyl]-1H-pyrazol-3-yl]methoxy]butanoic acid] | 2.2 | 16000 | 

Further lines, with some results ahead:

Row | IC50 (MCT4; [1]) [nM] | IC50 (MCT1) [nM] | Structure (SMILES) | IC50 (MCT4) [nM]
14 | 12 | 12000 | CCOc1cc(OCC)cc(-c2cc(COC(C)(C)C(=O)O)nn2Cc2ccccc2Cl)c1 [Example 213, 2-([1-[(2-Chlorophenyl)methyl]-5-(3,5-diethoxyphenyl)-1H-pyrazol-3-yl]methoxy)-2-methylpropanoic acid] | 
15 | 6 | 94000 | CN(C)c1ccccc1Cn1nc(COC(C)(C)C(=O)O)cc1-c1cccc(OC2CC2)c1 [Example 214, 2-([5-(3-Cyclopropoxyphenyl)-1-[[2-(dimethylamino)phenyl)methyl]-1H-pyrazol-3-yl]methoxy)-2-methylpropanoic acid] | 
16 | 360 | > 100000 | COc1cccc(-c2cc(COC(C)(C)C(=O)O)nn2-c2ccccc2OC(C)C)c1 [Example 215, 2-([5-(3-Methoxyphenyl)-1-[2-(propan-2-yloxy)phenyl]-l//-pyrazol-3-yl]mcthoxy)-2-methylpropanoic acid] | 
17 | 4 | 14000 | CC[C@@](C)(OCc1cc(-c2cccc(OC)c2)n(Cc2ccccc2Cl)n1)C(=O)O [Example 219, (2R)-2-([1-[(2-chlorophenyl)methyl]-5-(3-methoxyphenyl)-1H-pyrazol-3-yl]methoxy)-2-methylbutanoic acid] | 
18 | 0.3 | 21000 | CC[C@@](C)(OCc1cc(-c2cccc(OCC(C)(C)C)c2)n(-c2cccc3cnn(C)c23)n1)C(=O)O [Example 223, (2R)-2-([5-[3-(2,2-Dimethyl-propoxy)phenyl]-1-(1-methyl-1H-indazol-7-yl)-1H-pyrazol-3-yl]methoxy)-2-methyl-butanoic acid] | 
19 | 4.5 | 63000 | COc1cc(OC)cc(-c2cc(COC(C)(C)C(=O)O)nn2-c2ccccc2N2CCCC2)c1 [Example 231, 2-([5-(3,5-Dimethoxyphenyl)-1-[2-(pyrrolidin-1-yl)phenyl]-1H-pyrazol-3-yl]-methoxy)-2-methylpropanoic acid] | 
20 | 960 | 70000 | CC(C)(OCc1cc(-c2cccc(OC3CC3)c2)n(-c2ccccc2N2CCOCC2)n1)C(=O)O [Example 234, 2-([5-(3-Cyclopropoxyphenyl)-1-[2-(morpholin-4-yl)phenyl]-1H-pyrazol-3-yl]-methoxy)-2-methylpropanoic acid] | 
21 | > 30000 | > 100000 | CC(C)(OCc1cc(-c2cccc(OC3CC3)c2)n(-c2ccccc2N2CCCC2=O)n1)C(=O)O [Example 235, 2-([5-(3-Cyclopropoxyphenyl)-1-(2-(2-oxopyrrolidin-1-yl)phenyl]-1H-pyrazol-3-yl]methoxy)-2-methylpropanoic acid] | 
22 | 170 | > 100000 | CC(C)(OCc1cc(-c2cccc(OC3CC3)c2)n(-c2ccccc2-n2cccn2)n1)C(=O)O [Example 236, 2-([5-(3-Cyclopropoxyphenyl)-1-[2-(1H-pyrazol-1-yl)phenyl]-1H-pyrazol-3-yl]-methoxy)-2-methylpropanoic acid] | 
23 | 160 | > 100000 | CC(C)(OCc1cc(-c2cccc(OC3CC3)c2)n(-c2ccccc2N2CC[C@@H](O)C2)n1)C(=O)O [Example 237, 2-([5-(3-Cyclopropoxyphenyl)-1-[2-[(3R)-3-hydroxypyrrolidin-1-yl]phenyl]-1H-pyrazol-3-yl]methoxy)-2-methylpropanoic acid] | 
24 | 7.6 | 77000 | COc1cc(OC)cc(-c2cc(COC(C)(C)C(=O)O)nn2-c2ccccc2N(C)C)c1 [Example 245, 2-([5-(3,5-Dimethoxyphenyl)-1-[2-(dimethylamino)phenyl)-1H-pyrazol-3-yl]-methoxy)-2-methylpropanoic acid] | 
25 | 23 | > 100000 | CC(C)COc1cccc(-c2cc(COC(C)(C)C(=O)O)nn2Cc2ccccn2)c1 [Example 247, 2-Methyl-2-([5-[3-(2-methylpropoxy)-phenyl]-1-([pyridin-2-yl]methyl)-1H-pyrazol-3-yl]methoxy)propanoic acid] | 
26 | 39 | > 100000 | COc1cc(OC)cc(-c2cc(COC(C)(C)C(=O)O)nn2-c2cccc3cnn(C)c23)c1 [Example 249, 2-([5-(3,5-Dimethoxyphenyl)-1-(1-methyl-1H-indazol-7-yl)-1H-pyrazol-3-yl]methoxy)-2-methylpropanoic acid] | 
27 | 19 | 55000 | CC(C)(C)COc1cccc(-c2cc(COC(C)(C)C(=O)O)nn2-c2cccc3cccnc23)c1 [Example 253, 2-([5-[3-(2,2-Dimethylpropoxy)phenyl]-1-(quinolin-8-yl)-1H-pyrazol-3-yl]methoxy)-2-methylpropanoic acid] | 
28 | 285 | > 100000 | COc1cc(OC)cc(-c2cc(COC(C)(C)C(=O)O)nn2Cc2ccccn2)c1 [Example 254, 2-([5-(3,5-Dimethoxyphenyl)-1-([pyridin-2-yl]methyl)-1H-pyrazol-3-yl]methoxy)-2-methylpropanoic acid] | 
29 | 2.6 | 17000 | Cn1ncc2cccc(Cn3nc(COC(C)(C)C(=O)O)cc3-c3cccc(OCC(C)(C)C)c3)c21 [Example 256, 2-([5-[3-(2,2-Dimethylpropoxy)phenyl]-1-[(1-methyl-1H-indazol-7-yl)methyl]-1H-pyrazol-3-yl]methoxy)-2-methylpropanoic acid] | 
30 | 12 | 27000 | Cn1nnc2cccc(-n3nc(COC(C)(C)C(=O)O)cc3-c3cccc(OCC(C)(C)C)c3)c21 [Example 258, 2-([5-[3-(2,2-Dimethylpropoxy)phenyl]-1-(1-methyl-1H-1,2,3-benzotriazol-7-yl)-1H-pyrazol-3-yl)methoxy)-2-methylpropanoic acid] | 
31 | 17 | 43000 | CCn1nnc2ccc(-c3cc(COC(C)(C)C(=O)O)nn3Cc3ccccc3Cl)cc21 [Example 261] | 
